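Five compound concentrations were applied to cells in 96-well plates for 48 hours; endpoints were derived by simple linear interpolation of the resulting dose-response curve. GI50: concentration for 50% inhibition of growth. At the TGI there is no net growth.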
Legend:
Test in all cases: growth of human tumour cells (NCI), 48 h
[1] = system: 786-0 renal
[2] = system: A549 NSCLC
[3] = system: ACHN renal
[4] = system: CCRF-CEM leukemia
[5] = system: COLO 205 colon
[6] = system: DLD-1 colon
[7] = system: DMS 114 small cell lung
[8] = system: EKVX NSCLC
[9] = system: HCC-2998 colon
[10] = system: HCT-15 colon
[11] = system: HL-60(TB) leukemia
[12] = system: HOP-18 NSCLC
[13] = system: HOP-92 NSCLC
[14] = system: IGROV1 ovarian
[15] = system: K-562 leukemia
[16] = system: KM12 colon
[17] = system: KM20L2 colon
[18] = system: LOX IMVI melanoma
[19] = system: M14 melanoma
[20] = system: M19-MEL melanoma
[21] = system: MALME-3M melanoma
[22] = system: MOLT-4 leukemia
[23] = system: NCI-H226 lung
[24] = system: NCI-H23 lung
[25] = system: NCI-H522 lung
[26] = system: OVCAR-3 ovarian
[27] = system: OVCAR-5 ovarian
[28] = system: OVCAR-8 ovarian
[29] = system: RPMI-8226 leukemia
[30] = system: RXF 393 renal
[31] = system: SF-268 CNS
[32] = system: SF-295 CNS
[33] = system: SF-539 CNS
[34] = system: SK-MEL-2 melanoma
[35] = system: SK-MEL-28 melanoma
[36] = system: SK-OV-3 ovarian
[37] = system: SN12C renal
[38] = system: SNB-19 CNS
[39] = system: SNB-75 CNS
[40] = system: SNB-78 CNS
[41] = system: SR leukemia
[42] = system: SW-620 colon
[43] = system: TK-10 renal
[44] = system: UACC-257 melanoma
[45] = system: UACC-62 melanoma
[46] = system: UO-31 renal
[47] = system: XF 498 CNS
[48] = system: DMS 273 small cell lung
[49] = system: HCT-116 colon
[50] = system: HOP-62 NSCLC
[51] = system: HT29 colon
[52] = system: LXFL 529 NSCLC
[53] = system: NCI-H460 lung
[54] = system: OVCAR-4 ovarian
[55] = system: RXF-631 renal
[56] = system: SK-MEL-5 melanoma
[57] = system: U251 CNS
[58] = system: A498 renal
[59] = system: CAKI-1 renal

SMILES: O=S(=O)([O-])c1ccc(C=Nc2ccccc2)c([O-])c1.O=S(=O)([O-])c1ccc(C=Nc2ccccc2)c([O-])c1.[Co+2]
- GI50 [1]: 94.7 µM
- TGI [1]: > 100 µM
- GI50 [2]: 55.2 µM
- TGI [2]: > 100 µM
- GI50 [3]: 48.1 µM
- TGI [3]: > 100 µM
- GI50 [4]: 11.7 µM
- TGI [4]: > 100 µM
- GI50 [5]: 70.5 µM
- TGI [5]: > 100 µM
- GI50 [6]: 5.18 µM
- TGI [6]: > 100 µM
- GI50 [7]: > 100 µM
- TGI [7]: > 100 µM
- GI50 [8]: 43.2 µM
- TGI [8]: > 100 µM
- GI50 [9]: > 100 µM
- TGI [9]: > 100 µM
- GI50 [10]: 45.5 µM
- TGI [10]: > 100 µM
- GI50 [11]: 2700 nM
- TGI [11]: > 100 µM
- GI50 [12]: 43.1 µM
- TGI [12]: > 100 µM
- GI50 [13]: > 100 µM
- TGI [13]: > 100 µM
- GI50 [14]: > 100 µM
- TGI [14]: > 100 µM
- GI50 [15]: 2070 nM
- TGI [15]: > 100 µM
- GI50 [16]: 65.4 µM
- TGI [16]: > 100 µM
- GI50 [17]: 1760 nM
- TGI [17]: > 100 µM
- GI50 [18]: 3.01 µM
- TGI [18]: > 100 µM
- GI50 [19]: 6.5 µM
- TGI [19]: > 100 µM
- GI50 [20]: 78.7 µM
- TGI [20]: > 100 µM
- GI50 [21]: 99.1 µM
- TGI [21]: > 100 µM
- GI50 [22]: 7.71 µM
- TGI [22]: > 100 µM
- GI50 [23]: 17.7 µM
- TGI [23]: > 100 µM
- GI50 [24]: > 100 µM
- TGI [24]: > 100 µM
- GI50 [25]: > 100 µM
- TGI [25]: > 100 µM
- GI50 [26]: > 100 µM
- TGI [26]: > 100 µM
- GI50 [27]: 16.1 µM
- TGI [27]: > 100 µM
- GI50 [28]: 50.6 µM
- TGI [28]: > 100 µM
- GI50 [29]: > 100 µM
- TGI [29]: > 100 µM
- GI50 [30]: > 100 µM
- TGI [30]: > 100 µM
- GI50 [31]: 5.18 µM
- TGI [31]: > 100 µM
- GI50 [32]: > 100 µM
- TGI [32]: > 100 µM
- GI50 [33]: 32.6 µM
- TGI [33]: > 100 µM
- GI50 [34]: 77.8 µM
- TGI [34]: > 100 µM
- GI50 [35]: > 100 µM
- TGI [35]: > 100 µM
- GI50 [36]: > 100 µM
- TGI [36]: > 100 µM
- GI50 [37]: 18.8 µM
- TGI [37]: > 100 µM
- GI50 [38]: > 100 µM
- TGI [38]: > 100 µM
- GI50 [39]: > 100 µM
- TGI [39]: > 100 µM
- GI50 [40]: 51.7 µM
- TGI [40]: > 100 µM
- GI50 [41]: 24.9 µM
- TGI [41]: > 100 µM
- GI50 [42]: 6.96 µM
- TGI [42]: > 100 µM
- GI50 [43]: > 100 µM
- TGI [43]: > 100 µM
- GI50 [44]: > 100 µM
- TGI [44]: > 100 µM
- GI50 [45]: 3.96 µM
- TGI [45]: > 100 µM
- GI50 [46]: 21 µM
- TGI [46]: > 100 µM
- GI50 [47]: 20.6 µM
- TGI [47]: > 100 µM

SMILES: CC[P+](C)(C)CC
- TGI [1]: > 100 µM
- TGI [2]: > 100 µM
- TGI [3]: > 100 µM
- TGI [4]: > 100 µM
- TGI [5]: > 100 µM
- TGI [6]: > 100 µM
- TGI [7]: > 100 µM
- TGI [48]: > 100 µM
- TGI [8]: > 100 µM
- TGI [9]: > 100 µM
- TGI [49]: > 100 µM
- TGI [10]: > 100 µM
- TGI [11]: > 100 µM
- TGI [12]: > 100 µM
- TGI [50]: > 100 µM
- TGI [13]: > 100 µM
- TGI [51]: > 100 µM
- TGI [14]: > 100 µM
- TGI [15]: > 100 µM
- TGI [16]: > 100 µM
- TGI [17]: > 100 µM
- TGI [18]: > 100 µM
- TGI [52]: > 100 µM
- TGI [19]: > 100 µM
- TGI [20]: > 100 µM
- TGI [21]: > 100 µM
- TGI [22]: > 100 µM
- TGI [23]: > 100 µM
- TGI [24]: > 100 µM
- TGI [53]: > 100 µM
- TGI [26]: > 100 µM
- TGI [54]: > 100 µM
- TGI [27]: > 100 µM
- TGI [28]: > 100 µM
- TGI [29]: > 100 µM
- TGI [30]: > 100 µM
- TGI [55]: > 100 µM
- TGI [31]: > 100 µM
- TGI [32]: > 100 µM
- TGI [33]: > 100 µM
- TGI [34]: > 100 µM
- TGI [35]: > 100 µM
- TGI [56]: > 100 µM
- TGI [36]: > 100 µM
- TGI [37]: > 100 µM
- TGI [38]: > 100 µM
- TGI [39]: > 100 µM
- TGI [40]: > 100 µM
- TGI [41]: > 100 µM
- TGI [42]: > 100 µM
- TGI [43]: > 100 µM
- TGI [57]: > 100 µM
- TGI [44]: > 100 µM
- TGI [45]: > 100 µM
- TGI [46]: > 100 µM

SMILES: COC(=O)C(C(=O)C(=O)Nc1nc2ccc(OC)cc2s1)c1cnc2ccccc2n1 (centres undefined)
- TGI [1]: > 100 µM
- TGI [58]: > 100 µM
- TGI [2]: > 100 µM
- TGI [3]: > 100 µM
- TGI [59]: > 100 µM
- TGI [5]: > 100 µM
- TGI [6]: > 100 µM
- TGI [8]: > 100 µM
- TGI [9]: > 100 µM
- TGI [49]: > 100 µM
- TGI [10]: > 100 µM
- TGI [50]: > 100 µM
- TGI [13]: > 100 µM
- TGI [51]: > 100 µM
- TGI [14]: > 100 µM
- TGI [15]: > 100 µM
- TGI [16]: > 100 µM
- TGI [17]: > 100 µM
- TGI [18]: > 100 µM
- TGI [52]: > 100 µM
- TGI [19]: > 100 µM
- TGI [20]: > 100 µM
- TGI [21]: > 100 µM
- TGI [22]: > 100 µM
- TGI [23]: > 100 µM
- TGI [24]: > 100 µM
- TGI [53]: > 100 µM
- TGI [25]: > 100 µM
- TGI [26]: > 100 µM
- TGI [54]: > 100 µM
- TGI [27]: > 100 µM
- TGI [29]: > 100 µM
- TGI [30]: > 100 µM
- TGI [31]: > 100 µM
- TGI [32]: > 100 µM
- TGI [33]: > 100 µM
- TGI [35]: > 100 µM
- TGI [56]: > 100 µM
- TGI [36]: > 100 µM
- TGI [37]: > 100 µM
- TGI [38]: > 100 µM
- TGI [39]: > 100 µM
- TGI [40]: > 100 µM
- TGI [42]: > 100 µM
- TGI [43]: > 100 µM
- TGI [57]: > 100 µM
- TGI [44]: > 100 µM
- TGI [45]: > 100 µM
- TGI [46]: > 100 µM
- TGI [47]: > 100 µM
